One data set deals with TNF (Homo sapiens, UniProt P01375). In words: TNF-neutralization bioassay: TNF-induced cell death of LM cells (MTT). Format: cell-based. The conditions noted are these: compound 50 μM, TNF 20 ng/ml, actinomycin D, LM cells, 24 hours. How it is done: First, the addition of recombinant TNF to mouse fibroblast LM cells induces cell death, and thus, by using the same, the TNF-neutralization bioassay was constructed. In other words, LM cells were pretreated with TNF (20 ng/ml) and the compounds synthesized in the above examples at various concentrations (5×10^4 cells/well), and a sensitizer actinomycin D ([…]) was added, and cultured in a CO2 incubator for 24 hours, and then the MTT assay was carried out. At this time, 10 μl of MTT (5 mg/ml stock) was added, reacted for 4 hours, and then dissolved in DMSO to measure the absorbance at 570 nm. First, the TNF cell death inhibition/neutralization action of TNF-target expected compounds at single concentration (50 or 10 μM) was measured. Second, IC50 values were determined by treating with the compounds having an excellent effect at different concentrations. The % inhibition of TNF was calculated using the following formula: % inhibition of TNF=(OD value of a group treated with TNF and compound−OD value of TNF treated group/(OD value of TNF untreated group−OD value of TNF treated group)×100.
Chain of TNF (P01375 77-233 limits assumed): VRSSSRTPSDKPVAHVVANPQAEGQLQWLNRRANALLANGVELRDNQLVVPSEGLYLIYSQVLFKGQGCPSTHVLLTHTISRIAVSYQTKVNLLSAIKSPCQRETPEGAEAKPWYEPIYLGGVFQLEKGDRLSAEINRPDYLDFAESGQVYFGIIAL
IC50 values were statistically analyzed using Prism 6 (GraphPad) (IC50: 50% inhibitory concentration, CC50: 50% cytotoxic concentration).

The term inhibition denotes the drop in the measured response relative to a control, in per cent. A higher inhibition goes with a strong effect. Broadly, the melting point is the temperature, or range, at which the solid turns liquid. In turn, `COc1ccc2c(=O)c(C(=O)O)c(-c3cccc(F)c3)oc2c1` [Example 1, 2-(3-fluorophenyl)-3-carboxy-7-methoxy-(4H)-4-benzopyranone] displayed a melting point of 214 to 215 °C. Moreover, the inhibition at 50 µM at TNF is 39.1%.

In turn, `COc1cccc2c(=O)c(C(=O)O)c(-c3ccco3)oc12` [Example 2, 2-(2-furanyl)-3-carboxy-8-methoxy-(4H)-4-benzopyranone] had a melting point of 195 to 197 °C. The inhibition at 50 µM at TNF was 46.6%.

As for `COc1ccc2c(=O)c(C(=O)O)c(-c3ccco3)oc2c1` [Example 3, 2-(2-furanyl)-3-carboxy-7-methoxy-(4H)-4-benzopyranone], the melting point lay within 217 to 219 °C. The inhibition at 50 µM at TNF was determined as 26.3%.

`COc1ccc2oc(-c3ccco3)c(C(=O)O)c(=O)c2c1` [Example 4, 2-(2-furanyl)-3-carboxy-6-methoxy-(4H)-4-benzopyranone] displayed a melting point of 205 to 207 °C. This molecule showed an inhibition at 50 µM against TNF of 24.6%.

For `COc1cccc2c(=O)c(C(=O)O)c(-c3cccc(C)c3)oc12` [Example 5, 2-(3-methylphenyl)-3-carboxy-8-methoxy-(4H)-4-benzopyranone], the melting point lay in the range of 192 to 195 °C. The molecule also showed an inhibition at 50 µM against TNF of 34.4%.

Molecule `COc1ccc2c(=O)c(C(=O)O)c(-c3cccc(C)c3)oc2c1` [Example 6, 2-(3-methylphenyl)-3-carboxy-7-methoxy-(4H)-4-benzopyranone] registered a melting point of 183 to 184 °C. This molecule also registered an inhibition at 50 µM against TNF of 46%.

`COc1ccc2oc(-c3cccc(C)c3)c(C(=O)O)c(=O)c2c1` [Example 7, 2-(3-methylphenyl)-3-carboxy-6-methoxy-(4H)-4-benzopyranone] returned a melting point of 198 to 199 °C. This molecule also displayed an inhibition at 50 µM against TNF of 47%.

Take `COc1ccc(-c2oc3ccccc3c(=O)c2C(=O)O)cc1OC` [Example 8, 2-(3,4-dimethoxyphenyl)-3-carboxy-(4H)-4-benzopyranone]: the melting point fell in the range of 237 to 238 °C. Moreover, testing at 50 µM against TNF gave an inhibition of 24.3%.

The molecule `COc1ccc2c(=O)c(C(=O)O)c(-c3ccc(OC)c(OC)c3)oc2c1` [Example 9, 2-(3,4-dimethoxyphenyl)-3-carboxy-7-methoxy-(4H)-4-benzopyranone] had a melting point of 208 to 210 °C. This molecule also displayed an inhibition at 50 µM against TNF of 49.2%.

Molecule `COc1ccc2c(=O)c(C(=O)O)c(-c3ccccc3Cl)oc2c1` [Example 10, 2-(2-chlorophenyl)-3-carboxy-7-methoxy-(4H)-4-benzopyranone] displayed a melting point of 130 to 132 °C. The same molecule registered an inhibition at 50 µM on TNF of 45.6%.

Molecule `O=C(O)c1c(-c2ccccc2Cl)oc2ccccc2c1=O` [Example 11, 2-(2-chlorophenyl)-3-carboxy-(4H)-4-benzopyranone] returned a melting point of 133 to 135 °C. The same molecule gave an inhibition at 50 µM at TNF of 60.6%.

`COc1cccc2c(=O)c(C(=O)O)c(-c3cccs3)oc12` [Example 12, 2-(2-thiophenyl)-3-carboxy-8-methoxy-(4H)-4-benzopyranone] registered a melting point of 196 to 198 °C. This molecule showed an inhibition at 50 µM on TNF of 62.5%.

Molecule `COc1ccc2c(=O)c(C(=O)O)c(-c3cccs3)oc2c1` [Example 13, 2-(2-thiophenyl)-3-carboxy-7-methoxy-(4H)-4-benzopyranone] returned a melting point of 205 to 207 °C. Testing at 50 µM against TNF gave an inhibition of 55.9%.

Turning to `COc1ccc2oc(-c3cccs3)c(C(=O)O)c(=O)c2c1` [Example 14, 2-(2-thiophenyl)-3-carboxy-6-methoxy-(4H)-4-benzopyranone], the melting point fell in the range of 172 to 174 °C. In addition, on TNF, at 50 µM the inhibition was 38.8%.

In turn, `O=C(O)c1c(-c2cccs2)oc2ccccc2c1=O` [Example 15, 2-(2-thiophenyl)-3-carboxy-(4H)-4-benzopyranone] gave a melting point of 175 to 176 °C. Also, the inhibition at 50 µM against TNF stood at 47.5%.

`O=C(O)c1c(-c2ccco2)oc2ccccc2c1=O` [Example 18, 2-(2-furanyl)-3-carboxy-(4H)-4-benzopyranone] had a melting point of 202 to 205 °C. Further, the inhibition at 50 µM at TNF is 48.6%.

Take `Cc1cccc(-c2oc3ccccc3c(=O)c2C(=O)O)c1` [Example 19, 2-(3-methylphenyl)-3-carboxy-(4H)-4-benzopyranone]: the melting point is 162 to 164 °C. The molecule also returned an inhibition at 50 µM on TNF of 48.3%.

The molecule `Cc1cccc2c(=O)c(C(=O)O)c(-c3ccco3)oc12` [Example 20, 2-(2-furanyl)-3-carboxy-8-methyl-(4H)-4-benzopyranone] showed a melting point of 227 to 228 °C. Besides, testing at 50 µM against TNF gave an inhibition of 59%.

`Cc1ccc2c(=O)c(C(=O)O)c(-c3ccco3)oc2c1` [Example 21, 2-(2-furanyl)-3-carboxy-7-methyl-(4H)-4-benzopyranone] gave a melting point of 217 to 218 °C. This molecule returned an inhibition at 50 µM on TNF of 55.2%.

For `Cc1ccc2oc(-c3ccco3)c(C(=O)O)c(=O)c2c1` [Example 22, 2-(2-furanyl)-3-carboxy-6-methyl-(4H)-4-benzopyranone], the melting point lay in the range of 195 to 197 °C. Also, the inhibition at 50 µM on TNF was found to be 50.4%.

`Cc1cccc(-c2oc3c(C)cccc3c(=O)c2C(=O)O)c1` [Example 25, 2-(3-methylphenyl)-3-carboxy-8-methyl-(4H)-4-benzopyranone] had a melting point of 209 to 211 °C. Moreover, the inhibition at 50 µM on TNF was found to be 41%.

`Cc1cccc(-c2oc3cc(C)ccc3c(=O)c2C(=O)O)c1` [Example 26, 2-(3-methylphenyl)-3-carboxy-7-methyl-(4H)-4-benzopyranone] had a melting point of 152 to 155 °C. Moreover, on TNF, the inhibition at 50 µM was 45.1%.

Regarding `Cc1cccc(-c2oc3ccc(C)cc3c(=O)c2C(=O)O)c1` [Example 27, 2-(3-methylphenyl)-3-carboxy-6-methyl-(4H)-4-benzopyranone], the melting point fell in the range of 192 to 195 °C. Besides, 50 µM produced 65.2% inhibition at TNF.

In the case of `Cc1cccc(-c2oc3cc(Cl)ccc3c(=O)c2C(=O)O)c1` [Example 28, 2-(3-methylphenyl)-3-carboxy-7-chloro-(4H)-4-benzopyranone], the melting point was in the range of 179 to 181 °C. In addition, the inhibition at 50 µM against TNF worked out at 34.9%.

`Cc1cccc(-c2oc3ccc(Cl)cc3c(=O)c2C(=O)O)c1` [Example 29, 2-(3-methylphenyl)-3-carboxy-6-chloro-(4H)-4-benzopyranone] gave a melting point of 218 to 220 °C. On TNF, this molecule showed an inhibition at 50 µM of 45.7%.

For the molecule `Cc1cccc2c(=O)c(C(=O)O)c(-c3cccs3)oc12` [Example 31, 2-(2-thiophenyl)-3-carboxy-8-methyl-(4H)-4-benzopyranone], the melting point lay within 205 to 206 °C. Also, at 50 µM the inhibition on TNF was 24.8%.

As to `Cc1ccc2c(=O)c(C(=O)O)c(-c3cccs3)oc2c1` [Example 32, 2-(2-thiophenyl)-3-carboxy-7-methyl-(4H)-4-benzopyranone], the melting point lay in the range of 202 to 203 °C. This molecule yielded an inhibition at 50 µM on TNF of 23.6%.

In turn, `Cc1ccc2oc(-c3cccs3)c(C(=O)O)c(=O)c2c1` [Example 33, 2-(2-thiophenyl)-3-carboxy-6-methyl-(4H)-4-benzopyranone] came in with a melting point of 153 to 155 °C. Also, the inhibition at 50 µM on TNF turned out to be 20.7%.

Molecule `O=C(O)c1c(-c2cccs2)oc2cc(Cl)ccc2c1=O` [Example 34, 2-(2-thiophenyl)-3-carboxy-7-chloro-(4H)-4-benzopyranone] returned a melting point of 232 to 233 °C. Also, testing at 50 µM at TNF gave an inhibition of 21.7%.

The molecule `O=C(O)c1c(-c2cccs2)oc2ccc(Cl)cc2c1=O` [Example 35, 2-(2-thiophenyl)-3-carboxy-6-chloro-(4H)-4-benzopyranone] showed a melting point of 202 to 204 °C. Besides, at TNF, 50 µM produced 28.1% inhibition.

In turn, `O=C(O)c1c(-c2cccs2)oc2ccc(Br)cc2c1=O` [Example 36, 2-(2-thiophenyl)-3-carboxy-6-bromo-(4H)-4-benzopyranone] displayed a melting point of 210 to 212 °C. Moreover, at TNF, the inhibition at 50 µM was 27%.

`COc1ccc(-c2oc3c(C)cccc3c(=O)c2C(=O)O)cc1OC` [Example 37, 2-(3,4-dimethoxyphenyl)-3-carboxy-8-methyl-(4H)-4-benzopyranone] yielded a melting point of 210 to 212 °C. The molecule also had an inhibition at 50 µM against TNF of 33.4%.

The molecule `COc1ccc(-c2oc3cc(C)ccc3c(=O)c2C(=O)O)cc1OC` [Example 38, 2-(3,4-dimethoxyphenyl)-3-carboxy-7-methyl-(4H)-4-benzopyranone] returned a melting point of 200 to 201 °C. This molecule also yielded an inhibition at 50 µM against TNF of 30.9%.

`COc1ccc(-c2oc3cc(Cl)ccc3c(=O)c2C(=O)O)cc1OC` [Example 39, 2-(3,4-dimethoxyphenyl)-3-carboxy-7-chloro-(4H)-4-benzopyranone] had a melting point of 226 to 227 °C. This molecule gave an inhibition at 50 µM against TNF of 24.5%.

As to `Cc1cccc2c(=O)c(C(=O)O)c(-c3cccc(F)c3)oc12` [Example 41, 2-(3-fluorophenyl)-3-carboxy-8-methyl-(4H)-4-benzopyranone], the melting point is 227 to 229 °C. The molecule further returned an inhibition at 50 µM at TNF of 37.2%.

The record behind these values is US11504349B2, “Composition for preventing or treating TNF-related diseases, containing novel derivative as active ingredient, and method for inhibiting TNF activity by using same” (ILAB, priority 2017, dated 2022).
